Assay [1] deals with human GPR142 (Homo sapiens (Human), UniProt Q7Z601). Description: GPR142 Agonist Effect as Measured by IP-1 Assay. The format is cell-based. The note with it: HEK293 cells expressing human GPR142, Mean ± SEM; for Efficacy: IP-1 assay; for EC50: IP-One HTRF, read-out: hGPR142 IP1 EC50. The method, then: GPR142 Agonist Effect as Measured by IP-1 Assay
The purpose of this assay is to detect GPR142 agonist effect.
HEK293 cells expressing human GPR142 are maintained in DMEM supplemented with 10% FBS and 800 μg/ml G418 (Geneticin®) at 37° C. and 5% CO2. The cells are plated in 384 well plates at 5000 cells per well and allowed 18 hours for attachment. After addition of compounds at varying concentrations ranging from 30 μM to 1 nM, cells are incubated for 1 hr. IP-1 measurements are performed using an IP-One HTRF® assay kit (Cisbio) according to manufacturer's protocol using assay buffer containing 1×HBSS (+Ca, +Mg), 0.1% BSA, 50 mM LiCl and 20 mM HEPES, pH 7.2. The reaction is stopped by addition of IP1-d2 (IP-1 coupled to an organic HTRF acceptor) followed by cryptate solution (http://www.htrf.com/usa/htrf-chemistry). The plates are incubated at 25° C. for 1 hr. Fluorescence is read in an Envision instrument at 665 nm and 620 nm wavelength. The ratio of 665 nm/620 nm is calculated and converted to IP-1 levels using an IP-1 standard curve. The data is fit to a 4 parameter-fit logistics to determine EC50 values.

Assay [2] deals with GPR142 (Mus musculus (Mouse), UniProt Q7TQN9). Description: Intraperitoneal Glucose Tolerance Tests (IPGTT). To be noted: male C57BL/6 mice; for ED50 / ED80: oral dosing 30 minutes prior to i.p. glucose challenge (2 g/kg), glucose AUC lowering; for considered positive in the assay (reduction in glucose AUC, P<0.05): oral dosing, IPGTT. The class given is in vivo. As for the experimental part:
Intraperitoneal Glucose Tolerance Tests (IPGTT)
IPGTT assay is used to examine the ability of exemplified compounds to activate GPR142 in vivo resulting in anti-diabetic efficacy, i.e. reduction in plasma glucose levels. Male C57BL/6 mice (8-10 weeks of age) are fed normal rodent chow diet and water ad libitum. On the night before the study, animals are fasted overnight in clean cages. On the morning of the study, animals are dosed orally with vehicle or compound at the indicated doses 30 minutes prior to the glucose challenge (2 g/kg) by intraperitoneal injection. Blood glucose levels are determined from tail bleeds taken immediately prior to compound dosing (−30 min) and 0, 15, 30, and 60 min after glucose challenge using handheld glucometers. Plasma is isolated from tail bleeds taken at 7 min after glucose challenge and used to determine insulin levels by the Rat/Mouse Insulin Elisa kit (Millipore) or MA6000 Mouse/Rat Insulin Kit (MSD). The blood glucose profile from t=0 to t=60 min is used to calculate an area under the curve (AUC) for each treatment. Percent lowering in glucose AUC is calculated for each treatment group with respect to the AUC of vehicle group. A compound with a reduction in glucose AUC (P<0.05) is considered positive in the assay.

Molecules are shown by their SMILES.

Sequence of human GPR142 (Q7Z601 whole entry): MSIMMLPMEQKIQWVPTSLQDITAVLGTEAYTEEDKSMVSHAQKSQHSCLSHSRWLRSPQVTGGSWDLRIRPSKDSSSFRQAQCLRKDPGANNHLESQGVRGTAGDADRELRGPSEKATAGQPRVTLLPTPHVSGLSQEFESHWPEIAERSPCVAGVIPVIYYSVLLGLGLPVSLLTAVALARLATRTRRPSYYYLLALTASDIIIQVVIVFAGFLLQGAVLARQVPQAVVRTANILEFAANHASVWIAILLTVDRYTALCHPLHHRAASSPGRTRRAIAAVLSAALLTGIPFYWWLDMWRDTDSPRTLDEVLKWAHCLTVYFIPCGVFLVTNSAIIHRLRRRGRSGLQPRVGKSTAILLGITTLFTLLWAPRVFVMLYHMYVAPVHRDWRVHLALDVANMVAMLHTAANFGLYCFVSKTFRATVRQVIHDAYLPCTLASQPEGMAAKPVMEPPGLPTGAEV
Sequence of GPR142 (Q7TQN9 whole entry): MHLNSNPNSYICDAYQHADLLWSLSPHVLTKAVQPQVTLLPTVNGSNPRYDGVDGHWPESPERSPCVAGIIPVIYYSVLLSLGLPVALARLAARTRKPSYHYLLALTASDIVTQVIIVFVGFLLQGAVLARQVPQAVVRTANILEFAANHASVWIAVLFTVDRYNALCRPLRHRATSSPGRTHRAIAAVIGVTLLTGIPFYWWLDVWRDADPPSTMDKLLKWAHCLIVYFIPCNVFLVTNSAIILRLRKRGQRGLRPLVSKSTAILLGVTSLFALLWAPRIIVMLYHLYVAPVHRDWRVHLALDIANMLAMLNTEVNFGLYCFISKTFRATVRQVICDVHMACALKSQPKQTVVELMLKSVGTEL

With `Cc1ncn(C)c1-c1nnc([C@@H]2C[C@H](N(C)C(=O)c3cccc(C(F)(F)F)c3)CCO2)[nH]1` (single isomer, unassigned; isomer 1) [Example 1, Cis-(chiral)-N-[(2-[5-(1,4-Dimethyl-1H-imidazol-5-yl)-4H-1,2,4-triazol-3-yl]tetrahydro-2H-pyran-4-yl]-N-methyl-3-(trifluoromethyl)benzamide, Isomer 1], in assay [1], the Efficacy is recorded as 109 ± 3, n = 12% and the concentration for a half-maximal effect (EC50) was determined as 43.5 ± 7.9 nM. Also, in assay [2], the ED50 is on record as 0.30 mpk; the ED80 was 1.6 mpk; the “considered positive in the assay (reduction in glucose AUC, P<0.05)” value was “positive”.
On to `Cc1ncn(C)c1-c1nnc([C@@H]2C[C@H](N(C)C(=O)c3cccc(OC(F)(F)F)c3)CCO2)[nH]1` (single isomer, unassigned; isomer 1) [Example 2, Cis-(chiral)-N-[2-[5-(1,4-Dimethyl-1H-imidazol-5-yl)-4H-1,2,4-triazol-3-yl]tetrahydro-2H-pyran-4-yl]-N-methyl-3-(trifluoromethoxy)benzamide, Isomer 1], for which, in assay [1], the Efficacy is recorded as 110 ± 2, n = 11% and the EC50 was 30.1 ± 4.2 nM. Besides, in assay [2], the ED50 was 0.24 mpk; the ED80 was 1.6 mpk; the “considered positive in the assay (reduction in glucose AUC, P<0.05)” value is listed as “positive”.
With `Cc1ncn(C)c1-c1nnc([C@@H]2C[C@H](N(C)C(=O)c3cccc(Cl)c3)CCO2)[nH]1` (single isomer, unassigned; isomer 1) [Example 3, Cis-(chiral)-3-Chloro-N-[2-[5-(1,4-dimethyl-1H-imidazol-5-yl)-4H-1,2,4-triazol-3-yl]tetrahydro-2H-pyran-4-yl]-N-methyl-benzamide, Isomer 1], in assay [1], the Efficacy is reported as 112 ± 3, n = 7% and the EC50 was found to be 27.2 ± 4.8 nM.

Source of the values: patent publication US10196385B2, “Tetrahydropyranyl benzamide derivatives” (Eli Lilly and Company, priority 2015, dated 2019).
